Measurements from patent US12371454B2, “Cyclic peptide compound having Kras inhibitory action” (priority 2019, dated 2025).
Positions of bridges follow the written chain, without caps; N, C: chain ends. Non-standard residues stand in square brackets, D forms with d. Residues, ends and D or L forms follow the SMILES beside them. *: point of attachment. hPhe(3-Cl-4-CF3) = N[C@@H](CCc1ccc(C(F)(F)F)c(Cl)c1)C(=O)O; NMePhe(4-CF3) = CN[C@@H](Cc1ccc(C(F)(F)F)cc1)C(=O)O; NMePhe(4-Cl) = CN[C@@H](Cc1ccc(Cl)cc1)C(=O)O; NMePhe(4-Me) = CN[C@@H](Cc1ccc(C)cc1)C(=O)O; NMeAla(cPent) = CN[C@@H](CC1CCCC1)C(=O)O; NMePhe(2-F) = CN[C@@H](Cc1ccccc1F)C(=O)O; NMeGly(cPent) = CN[C@H](C(=O)O)C1CCCC1; Phe(3-I) = N[C@@H](Cc1cccc(I)c1)C(=O)O; Phe(2-F) = N[C@@H](Cc1ccccc1F)C(=O)O; NMeY = CN[C@@H](Cc1ccc(O)cc1)C(=O)O; NMeCha = CN[C@@H](CC1CCCCC1)C(=O)O; NMeChg = CN[C@H](C(=O)O)C1CCCCC1; NMeI = CC[C@H](C)[C@H](NC)C(=O)O; hPhe = N[C@@H](CCc1ccccc1)C(=O)O; NMeD = CN[C@@H](CC(=O)O)C(=O)O; dNMeD = CN[C@H](CC(=O)O)C(=O)O; NMeL = CN[C@@H](CC(C)C)C(=O)O; NMeV = CN[C@H](C(=O)O)C(C)C; d(β3hA) = C[C@@H](N)CC(=O)O; Morpholide = C1CN(*)CCO1; NMeA = CN[C@@H](C)C(=O)O; NMeAib = CNC(C)(C)C(=O)O; Piperidide = C1CCN(*)CC1; Pra = C#CC[C@H](N)C(=O)O; Pyrrolidide = C1CCN(*)C1; dNMeA = CN[C@H](C)C(=O)O; Ac5c = NC1(C(=O)O)CCCC1; Aze = O=C(O)[C@@H]1CCN1; Aib = CC(C)(N)C(=O)O; Sar = CNCC(=O)O

These molecules were tested against T1, Kras and SOS1 (biotin-tagged human Kras loaded with GDP, His-tagged human SOS1) (Homo sapiens, UniProt P01116, G12D) (assay: Protein-protein interaction inhibition between Kras and SOS1 (KrasGl2D-SOS PPI) using AlphaScreen). Conditions: AlphaScreen; biotin-tagged human Kras loaded with GDP, His-tagged human SOS1; read-out: KRAS G12D-SOS PPI IC50.
T1 construct: made in house; host or cells: E. coli (stated for Kras only)
Type: binding
Summary of the method: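 AlphaScreen format: Ni donor beads capture His-SOS1, streptavidin acceptor beads capture biotinylated Kras (E. coli-expressed, GDP-loaded post-purification). Excite 680 nm, read 520-620 nm.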

T1 sequence (P01116 1-188 isoform P01116-2 G12D): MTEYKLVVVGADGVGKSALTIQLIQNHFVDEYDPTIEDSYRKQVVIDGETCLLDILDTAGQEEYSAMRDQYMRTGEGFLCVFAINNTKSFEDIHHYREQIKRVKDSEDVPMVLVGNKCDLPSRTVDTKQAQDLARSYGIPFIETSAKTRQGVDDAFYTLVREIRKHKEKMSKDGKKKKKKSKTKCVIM

Going from `CC[C@H](C)[C@@H]1NC(=O)[C@H](C)N(C)C(=O)C[C@@H](C)NC(=O)[C@H](C2CCCC2)N(C)C(=O)C2(CCCC2)NC(=O)[C@@H]2CCCN2C(=O)[C@H](CCc2ccc(C(F)(F)F)c(Cl)c2)NC(=O)[C@@H](C)N(C)C(=O)[C@H](Cc2ccccc2F)N(C)C(=O)[C@@H]2CCN2C(=O)[C@H](C)N(C)C1=O` [Compound 990] (cyclo([Ac5c][NMeGly(cPent)][d(β3hA)][NMeA]I[NMeA][Aze][NMePhe(2-F)][dNMeA][hPhe(3-Cl-4-CF3)]P)) to `CC[C@H](C)[C@@H]1NC(=O)[C@H](C)N(C)C(=O)C[C@@H](C)NC(=O)[C@H](C2CCCC2)N(C)C(=O)C2(CCCC2)NC(=O)[C@@H]2CCCN2C(=O)[C@H](CCc2ccc(C(F)(F)F)c(Cl)c2)NC(=O)CN(C)C(=O)[C@H](Cc2ccc(Cl)cc2)N(C)C(=O)[C@@H]2CCCN2C(=O)CN(C)C1=O` [Compound 549] (cyclo([Ac5c][NMeGly(cPent)][d(β3hA)][NMeA]I[Sar]P[NMePhe(4-Cl)][Sar][hPhe(3-Cl-4-CF3)]P)), the IC50 falls from 83 nM to 4 nM (21-fold). The second is the more potent here.

First: CC[C@H](C)[C@@H]1NC(=O)[C@H](CC(C)C)N(C)C(=O)C[C@@H](C(=O)N2CCCCC2)N(C)C(=O)[C@H](CC(C)C)NC(=O)C(C)(C)N(C)C(=O)[C@H](CCc2ccccc2)NC(=O)[C@H](Cc2cccc(I)c2)NC(=O)CN(C)C(=O)[C@H](Cc2ccc(C)cc2)N(C)C(=O)[C@@H]2CCN2C(=O)CN(C)C1=O [Compound 442] ([NMeL]I[Sar][Aze][NMePhe(4-Me)][Sar][Phe(3-I)][hPhe][NMeAib]L[NMeD]-Piperidide; lactam N-11)
Second: CC[C@H](C)[C@@H]1NC(=O)[C@H](CC(C)C)N(C)C(=O)C[C@@H](C(=O)N2CCCCC2)N(C)C(=O)[C@H](CC(C)C)NC(=O)C(C)(C)N(C)C(=O)[C@H](Cc2ccccc2F)NC(=O)[C@H](Cc2cccc(I)c2)NC(=O)CN(C)C(=O)[C@H](Cc2ccc(C)cc2)N(C)C(=O)CN(C)C(=O)CN(C)C1=O [Compound 556] ([NMeL]I[Sar][Sar][NMePhe(4-Me)][Sar][Phe(3-I)][Phe(2-F)][NMeAib]L[NMeD]-Piperidide; lactam N-11)
The IC50 of the first is 2.3-fold higher: 70 nM for the first, 30 nM for the second.

Going from `C#CC[C@@H]1NC(=O)[C@H](Cc2cccc(I)c2)NC(=O)CN(C)C(=O)[C@H](Cc2ccc(OC)cc2)N(C)C(=O)CN(C)C(=O)CN(C)C(=O)[C@H]([C@@H](C)CC)NC(=O)[C@H](CC(C)C)N(C)C(=O)C[C@@H](C(=O)N2CCCCC2)N(C)C(=O)[C@H](CC(C)C)NC(=O)C(C)(C)N(C)C1=O` [Compound 1169] ([NMeL]I[Sar][Sar][NMeY](Me)[Sar][Phe(3-I)][Pra][NMeAib]L[NMeD]-Piperidide; lactam N-11) to `CC[C@H](C)[C@@H]1NC(=O)[C@H](CC(C)C)N(C)C(=O)C[C@@H](C(=O)N2CCCCC2)N(C)C(=O)[C@H](C2CCCCC2)N(C)C(=O)[C@H](C(C)C)NC(=O)[C@@H]2CCCN2C(=O)[C@H](CCc2ccc(C(F)(F)F)c(Cl)c2)NC(=O)CN(C)C(=O)[C@H](CC2CCCCC2)N(C)C(=O)CN(C)C(=O)CN(C)C1=O` [Compound 1157] ([NMeL]I[Sar][Sar][NMeCha][Sar][hPhe(3-Cl-4-CF3)]PV[NMeChg][NMeD]-Piperidide; lactam N-11), the IC50 falls from 53 nM to 1.6 nM (33-fold).

Compared with `CC[C@H](C)[C@@H]1NC(=O)[C@H](CC(C)C)N(C)C(=O)C[C@@H](C)NC(=O)[C@H](C(C)C)N(C)C(=O)C(C)(C)NC(=O)[C@@H]2CCCN2C(=O)[C@H](CCc2ccc(C(F)(F)F)c(Cl)c2)NC(=O)CN(C)C(=O)[C@H](CC2CCCCC2)N(C)C(=O)CN(C)C(=O)CN(C)C1=O` [Compound 641] (cyclo([Aib][NMeV][d(β3hA)][NMeL]I[Sar][Sar][NMeCha][Sar][hPhe(3-Cl-4-CF3)]P)), `CC[C@H](C)[C@@H]1NC(=O)[C@H](CC(C)C)N(C)C(=O)C[C@@H](C(=O)N2CCOCC2)N(C)C(=O)[C@H](C(C)C)N(C)C(=O)C2(CCCC2)NC(=O)[C@@H]2CCCN2C(=O)[C@H](CCc2ccc(C(F)(F)F)c(Cl)c2)NC(=O)CN(C)C(=O)[C@H](CC2CCCC2)N(C)C(=O)CN(C)C(=O)CN(C)C1=O` [Compound 1848] ([NMeL]I[Sar][Sar][NMeAla(cPent)][Sar][hPhe(3-Cl-4-CF3)]P[Ac5c][NMeV][NMeD]-Morpholide; lactam N-11) is 13-fold lower in IC50: 18 nM for the first, 1.4 nM for the second.

Molecule `CC[C@H](C)[C@@H]1NC(=O)[C@H](CC(C)C)N(C)C(=O)C[C@H](C(=O)N2CCCC2)N(C)C(=O)[C@H]([C@@H](C)CC)N(C)C(=O)C2(CCCC2)NC(=O)[C@@H]2CCCN2C(=O)[C@H](CCc2ccc(C(F)(F)F)c(Cl)c2)NC(=O)CN(C)C(=O)[C@H](Cc2ccc(C(F)(F)F)cc2)N(C)C(=O)[C@@H]2CCN2C(=O)[C@H](C)N(C)C1=O` [Compound 1734] ([NMeL]I[NMeA][Aze][NMePhe(4-CF3)][Sar][hPhe(3-Cl-4-CF3)]P[Ac5c][NMeI][dNMeD]-Pyrrolidide; lactam N-11) has an IC50 of 71 nM.
